Patent US20060003924A1, “Sulfation-independent L-selectin or E-selectin ligand (HCELL) and therapeutics thereof” (priority 1994, published 2006)
“Also recorded” adds a separate entry of the source. Where two headings read alike, the source gives them in different places.

Experiments:
[1] = biological target: T1, E-selectin (Homo sapiens, UniProt P16581); assay: E-selectin ligand activity of immunoprecipitated proteins (CHO-E cell rolling); format: cell-based; conditions: for E-selectin-mediated CHO-E cell rolling on immunoprecipitated protein spotted onto plastic dishes: 3.8 dynes/cm^2
T1 construct: expressed in transfected cells; host or cells: CHO cells (CHO-E)
T1 sequence (P16581 22-610): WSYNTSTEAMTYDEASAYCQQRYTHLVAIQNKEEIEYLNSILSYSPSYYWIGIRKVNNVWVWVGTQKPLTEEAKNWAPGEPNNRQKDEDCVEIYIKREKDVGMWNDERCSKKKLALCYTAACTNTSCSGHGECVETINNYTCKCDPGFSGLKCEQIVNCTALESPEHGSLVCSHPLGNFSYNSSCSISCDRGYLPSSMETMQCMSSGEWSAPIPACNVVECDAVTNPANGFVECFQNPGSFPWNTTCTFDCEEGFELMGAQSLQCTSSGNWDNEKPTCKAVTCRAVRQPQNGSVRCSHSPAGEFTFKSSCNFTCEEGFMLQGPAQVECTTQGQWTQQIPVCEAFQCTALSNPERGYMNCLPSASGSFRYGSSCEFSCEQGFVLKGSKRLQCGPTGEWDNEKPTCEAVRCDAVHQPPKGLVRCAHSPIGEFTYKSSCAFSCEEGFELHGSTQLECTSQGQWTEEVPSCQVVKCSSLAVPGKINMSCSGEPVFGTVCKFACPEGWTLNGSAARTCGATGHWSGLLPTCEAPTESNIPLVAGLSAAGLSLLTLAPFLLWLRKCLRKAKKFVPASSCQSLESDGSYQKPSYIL

[2] = tested on: LN HEV; assay: Lymphocyte adherence to frozen rat lymph node sections (LN HEV, positive control); format: cell-based
Experimental: Lymphocyte Adherence Assay. […] Cytocentrifuge preparations of KG1a or other cell lines were made on a Cytospin 3 Cytocentrifuge (Shandon Lipshaw, Pittsburgh, Pa.). Frozen rat LN sections […] thick were mounted on slides, and lymphocyte binding to LN HEV served as a positive control in all experiments.
Lymphocyte suspensions ([…]) were overlaid onto cytocentrifuge or LN sections in duplicate and placed on a rotating platform (80 rpm) at 4° C. for 30 minutes. Slides were then rinsed in cold PBS to remove non-adherent lymphocytes, fixed in 3% glutaraldehyde, and stained with methyl green-thionin. Slides were examined under the light microscope for adherence of lymphocytes to KG1a or LN HEV.

[3] = tested on: KG1a; assay: Lymphocyte adherence assay on KG1a cytocentrifuge preparations (Examples 2-6); format: cell-based, human; conditions: for return of binding activity following desialylation: KG1a after neuraminidase
[4] = tested on: KG1a cells; assay: Stamper-Woodruff lymphocyte adherence assay on KG1a cytospins (Example 9); format: cell-based, human; conditions: for L-selectin ligand Activity of KG1a Cells Following Protease or Phospholipase C Treatment, % Control Binding: enzymatic treatment of cells in suspension before cytocentrifugation
[5] = tested on: CD43; assay: Flow cytometry of sialic acid-dependent L60 epitope of CD43 on KG1a after neuraminidase; format: cell-based, human; conditions: KG1a cultured with the agent
[6] = tested on: E-selectin ligand activity on KG1a and HL-60 cells; assay: Parallel-plate flow chamber: CHO-E cell rolling on fixed hematopoietic cell monolayers; format: cell-based, human; conditions: 2.8 dynes/cm^2, 3.8 dynes/cm^2
[7] = biological target: T2, KG1a CD44 (Homo sapiens, UniProt P16070); assay: CHO-E cell rolling over blotted or spotted KG1a membrane proteins / immunoprecipitated CD44; format: cell-based; conditions: 3.8 dynes/cm^2
T2 construct: was immunoprecipitated from KG1a membrane protein (50 μg); endogenous in cells; host or cells: KG1a cells (membrane preparation, Hermes-1 immunoprecipitate)
T2 sequence (P16070 21-361 isoform P16070-12 limits assumed): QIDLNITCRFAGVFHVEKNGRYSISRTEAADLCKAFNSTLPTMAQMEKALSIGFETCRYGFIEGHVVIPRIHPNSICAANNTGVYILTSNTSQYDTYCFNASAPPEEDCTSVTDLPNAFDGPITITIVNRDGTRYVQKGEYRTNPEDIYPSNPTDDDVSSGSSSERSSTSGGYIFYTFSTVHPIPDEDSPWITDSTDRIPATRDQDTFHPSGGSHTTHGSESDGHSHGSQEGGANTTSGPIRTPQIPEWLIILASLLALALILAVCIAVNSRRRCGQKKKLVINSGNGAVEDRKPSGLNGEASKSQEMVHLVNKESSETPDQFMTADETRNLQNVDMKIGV

[8] = tested on: KG1a; assay: KG1a cell viability by trypan blue exclusion; format: cell-based, human; conditions: KG1a after the treatment
[9] = LYMPHOCYTE TREATMENT, 1 mM EDTA, 10 mM mannose-6-P, 10 mg/ml PPME, 5 mg/ml fucoidin, 10 ng/ml PMA
[10] = 24 h culture with inhibitor after 1 h neuraminidase (0.1 U/ml), tunicamycin 15 μg/ml, deoxymannojirimycin 0.4 mg/ml, swainsonine 40 μg/ml
[11] = inhibitor alone, 24 h, tunicamycin 15 μg/ml, deoxymannojirimycin 0.4 mg/ml, swainsonine 40 μg/ml
[12] = 20 hr culture, no neuraminidase pretreatment, tunicamycin 15 ug/ml, cycloheximide 1.25 ug/ml
[13] = after neuraminidase, 24 hr culture with chlorate 10 mM, 20 hr culture with tunicamycin 15 ug/ml or cycloheximide 1.25 ug/ml
[14] = digestion then culture without inhibitor (neuraminidase 24 hour, bromelain 20 hour)

## KG1a CD44: HECA-452-reactive CD44 glycoform of KG1a, hematopoietic cell E-selectin/L-selectin ligand
[1]
  E-selectin-mediated CHO-E cell rolling on immunoprecipitated protein spotted onto plastic dishes: rolling was observed

## O=C[C@@H](O)[C@@H](O)[C@H](O)[C@H](O)COP(=O)(O)O [Mannose-6-P, D-mannose-6-phosphate]
[2]
  lymphocyte binding to LN control sections / LN HEV (result in words): inhibited
[3]
  lymphocyte binding to KG1a (result in words): inhibited
[3]; [9]
  Lymphocyte Adherence to KG1a, Mean of Binding (% of untreated control): 5.7 % of Untreated Control

## Fucoidin
[2]
  lymphocyte binding to LN control sections / LN HEV (result in words): inhibited
[3]
  lymphocyte binding to KG1a (result in words): inhibited
[3]; [9]
  Lymphocyte Adherence to KG1a, Mean of Binding (% of untreated control): 1.4 % of Untreated Control

## O[C@H]1[C@H]2[C@H](O)CCCN2C[C@H]1O [Swainsonine]
[4]; [10]
  % Control Adhesion: 26.6 % Control Adhesion
[4]; Stamper-Woodruff assay
  L-selectin ligand (HCELL) activity of KG1a / lymphocyte adherence (result in words): markedly diminished
[4]; [11]
  % Control Adhesion: 95.5 % Control Adhesion
[5]
  return of the L60 epitope of CD43 after neuraminidase: not inhibited

## CC(C)C[C@H](NC(=O)[C@@H](NC(=O)N[C@@H](Cc1ccccc1)C(=O)O)[C@@H]1CCN=C(N)N1)C(=O)N[C@H](C=O)Cc1ccccc1 [chymostatin]
[3]
  lymphocyte binding to KG1a (result in words): prevented chymotrypsin effects

## Tunicamycin
[4]; [10]
  % Control Adhesion: 1.0 % Control Adhesion
[4]; Stamper-Woodruff assay
  L-selectin ligand (HCELL) activity of KG1a / lymphocyte adherence (result in words): completely prevented ligand re-expression
[4]; [11]
  % Control Adhesion: 96.5 % Control Adhesion
[5]
  return of the L60 epitope of CD43 after neuraminidase: not inhibited
[3]; [12]
  Lymphocyte Adherence to KG1a, Mean of Binding (% of untreated control): 106.2 % of untreated control
[3]
  return of binding activity following desialylation: blocked
[3]; [13]
  Lymphocyte Adherence to KG1a, Mean of Binding (% of untreated control): 0.4 % of untreated control

## Human Neutrophil Elastase: protease
[4]; Stamper-Woodruff assay
  L-selectin ligand (HCELL) activity of KG1a / lymphocyte adherence (result in words): partially affects activity
[4]
  L-selectin ligand Activity of KG1a Cells Following Protease or Phospholipase C Treatment, % Control Binding: 25.4 % Control Binding

## O=C(O)CN(CCN(CC(=O)O)CC(=O)O)CC(=O)O [EDTA]
[4]
  L-selectin ligand (HCELL) activity of KG1a / lymphocyte adherence (result in words): complete elimination
[2]
  lymphocyte binding to LN control sections / LN HEV (result in words): completely inhibited
[3]
  lymphocyte binding to KG1a (result in words): completely inhibited
[3]; [9]
  Lymphocyte Adherence to KG1a, Mean of Binding (% of untreated control): 0.3 % of Untreated Control
[6]
  E-selectin ligand activity (CHO-E cell rolling) on KG1a and HL-60 cells: completely inhibited; also recorded: no activity
[7]
  E-selectin ligand activity (CHO-E cell rolling) of KG1a membrane proteins / CD44 after treatment: no evidence of E-selectin-mediated adhesive interactions; also recorded: prevented CHO-E rolling

## Neuraminidase: neuraminidase (sialidase), V. cholerae, Boehringer Mannheim
[4]; Neuraminidase 1 h then 24 h recovery
  % Control Adhesion: 99.3 % Control Adhesion
[4]; Neuraminidase (1 h), 0.1 U/ml
  % Control Adhesion: 1.0 % Control Adhesion
[4]; [14]
  Mean % Control Binding: 101.3 % Control Binding
[4]; t = 0, no culture
  Mean % Control Binding: 0.2 % Control Binding
[2]
  lymphocyte binding to LN control sections / LN HEV (result in words): abrogated binding
[8]
  Cell viability (trypan blue exclusion): > 99%
[3]
  lymphocyte binding to KG1a (result in words): abrogated binding
[3]; KG1A TREATMENT
  Lymphocyte Adherence to KG1a, Mean of Binding (% of untreated control): 3.1 % of Untreated Control
[3]; KG1a treatment, t = 0, no culture
  Lymphocyte Adherence to KG1a, Mean of Binding (% of untreated control): 0.02 % of untreated control
[3]; neuraminidase then 24 hr culture
  Lymphocyte Adherence to KG1a, Mean of Binding (% of untreated control): 101.3 % of untreated control
[6]
  E-selectin ligand activity (CHO-E cell rolling) on KG1a and HL-60 cells: no activity
[7]
  E-selectin ligand activity (CHO-E cell rolling) of KG1a membrane proteins / CD44 after treatment: markedly ablated CHO-E cell rolling

## O=S(=O)(F)Cc1ccccc1 [PMSF]
[3]
  lymphocyte binding to KG1a (result in words): prevented chymotrypsin effects

## OC[C@H]1NC[C@@H](O)[C@@H](O)[C@@H]1O [Deoxymannojirimycin]
[4]; [10]
  % Control Adhesion: 22.5 % Control Adhesion
[4]; Stamper-Woodruff assay
  L-selectin ligand (HCELL) activity of KG1a / lymphocyte adherence (result in words): markedly diminished
[4]; [11]
  % Control Adhesion: 107.5 % Control Adhesion
[5]
  return of the L60 epitope of CD43 after neuraminidase: not inhibited

## BMEC CD44: CD44 immunoprecipitated from human bone marrow endothelial cells
[1]; human bone marrow endothelial cells, Hermes-1 immunoprecipitate
  E-selectin ligand activity of immunoprecipitated CD44: did not possess any E-selectin ligand activity

## Bromelain
[4]; Stamper-Woodruff assay
  L-selectin ligand (HCELL) activity of KG1a / lymphocyte adherence (result in words): completely abrogates
[4]; [14]
  Mean % Control Binding: 95.2 % Control Binding
[4]
  L-selectin ligand Activity of KG1a Cells Following Protease or Phospholipase C Treatment, % Control Binding: 3.8 % Control Binding
[4]; t = 0, no culture
  Mean % Control Binding: 3.8 % Control Binding
[2]
  lymphocyte binding to LN control sections / LN HEV (result in words): abrogated binding
[3]
  lymphocyte binding to KG1a (result in words): abrogated binding
[3]; KG1A TREATMENT
  Lymphocyte Adherence to KG1a, Mean of Binding (% of untreated control): 3.8 % of Untreated Control

## C[C@@H]1C[C@@H]([C@H](O)CC2CC(=O)NC(=O)C2)C(=O)[C@@H](C)C1 [Cycloheximide]
[4]; 20 hour culture with cycloheximide 1.25 μg/ml, no neuraminidase or bromelain digestion
  Mean % Control Binding: 91.8 % Control Binding
[4]; after bromelain, 20 hour culture with cycloheximide 1.25 μg/ml
  Mean % Control Binding: 0.6 % Control Binding
[4]; after neuraminidase, 20 hour culture with cycloheximide 1.25 μg/ml
  Mean % Control Binding: 0.5 % Control Binding
[3]; [12]
  Lymphocyte Adherence to KG1a, Mean of Binding (% of untreated control): 91.8 % of untreated control
[3]
  return of binding activity following desialylation: blocked
[3]; [13]
  Lymphocyte Adherence to KG1a, Mean of Binding (% of untreated control): 0.5 % of untreated control

## Chymotrypsin
[4]; Stamper-Woodruff assay
  L-selectin ligand (HCELL) activity of KG1a / lymphocyte adherence (result in words): completely abrogates
[4]
  L-selectin ligand Activity of KG1a Cells Following Protease or Phospholipase C Treatment, % Control Binding: 6.7 % Control Binding
[2]
  lymphocyte binding to LN control sections / LN HEV (result in words): abrogated binding
[3]
  lymphocyte binding to KG1a (result in words): abrogated binding
[3]; KG1A TREATMENT
  Lymphocyte Adherence to KG1a, Mean of Binding (% of untreated control): 6.7 % of Untreated Control

B1: KG1a PSGL-1: P-selectin glycoprotein ligand-1 immunoprecipitated (4H10 moAb) from KG1a (protein, UniProt Q14242 42-412, looked up)
P-selectin glycoprotein …: QATEYEYLDYDFLPETEPPEMLRNSTDTTPLTGPGTPESTTVEPAARRSTGLDAGGAVTELTTELANMGNLSTDSAAMEIQTTQPAATEAQTTQPVPTEAQTTPLAATEAQTTRLTATEAQTTPLAATEAQTTPPAATEAQTTQPTGLEAQTTAPAAMEAQTTAPAAMEAQTTPPAAMEAQTTQTTAMEAQTTAPEATEAQTTQPTATEAQTTPLAAMEALSTEPSATEALSMEPTTKRGLFIPFSVSSVTHKGIPMAASNLSVNYPVGAPDHISVKQCLLAILILALVATIFFVCTVVLAVRLSRKGHMYPVRNYSPTEMVCISSLLPDGGEGPSATANGGLSKAKSPGLTPEPREDREGDDLTLHSFLP
modifications: KG1a cell glycoform
notes: P-selectin glycoprotein ligand-1 immunoprecipitated (4H10 moAb) from KG1a
[1]
  E-selectin-mediated CHO-E cell rolling on immunoprecipitated protein spotted onto plastic dishes: no binding was observed
[1]; lower shear force of 0.6 dynes/cm^2
  CHO-E rolling on immunoprecipitated protein: did occur
